Test system: 276233-004-R-J1-PDC KRAS spheroids with HUVEC/MSC, viability
Experiment: Anticancer human tumor 276233-004-R-J1-PDC patient-derived colon adenocarcinoma cell line growth inhibition [KRAS2]
Settings: for IC50: curve of first compound; for viability, T/C: stronger effect = lower value
Summary of the method: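 KRAS-mutant tumor cells were grown as spheroids with HUVEC endothelial cells and human MSCs as stroma. Targeted agents were tested alone and with KRAS pathway inhibitors. Doses started at or near clinical Cmax, or 10 microM, descending half-log.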

[1] = second compound 0.1 µM, first compound 0.0316 µM
[2] = second compound 0.1 µM, first compound 0.1 µM
[3] = second compound 0.1 µM, first compound 0.316 µM
[4] = second compound 0.1 µM, first compound 1 µM
[5] = second compound 0.1 µM, first compound 3.16 µM
[6] = second compound 0.1 µM, first compound 10 µM
[7] = second compound 0.316 µM, first compound 0.0316 µM
[8] = second compound 0.316 µM, first compound 0.1 µM
[9] = second compound 0.316 µM, first compound 0.316 µM
[10] = second compound 0.316 µM, first compound 1 µM
[11] = second compound 0.316 µM, first compound 3.16 µM
[12] = second compound 0.316 µM, first compound 10 µM
[13] = second compound 1 µM, first compound 0.0316 µM
[14] = second compound 1 µM, first compound 0.1 µM
[15] = second compound 1 µM, first compound 0.316 µM
[16] = second compound 1 µM, first compound 1 µM
[17] = second compound 1 µM, first compound 3.16 µM
[18] = second compound 1 µM, first compound 10 µM
[19] = second compound 3.16 µM, first compound 0.0316 µM
[20] = second compound 3.16 µM, first compound 0.1 µM
[21] = second compound 3.16 µM, first compound 0.316 µM
[22] = second compound 3.16 µM, first compound 1 µM
[23] = second compound 3.16 µM, first compound 3.16 µM
[24] = second compound 3.16 µM, first compound 10 µM
[25] = second compound 10 µM, first compound 0.0316 µM
[26] = second compound 10 µM, first compound 0.1 µM
[27] = second compound 10 µM, first compound 0.316 µM
[28] = second compound 10 µM, first compound 1 µM
[29] = second compound 10 µM, first compound 3.16 µM
[30] = second compound 10 µM, first compound 10 µM
[31] = second compound 0.0316 µM, first compound 0.0316 µM
[32] = second compound 0.0316 µM, first compound 0.1 µM
[33] = second compound 0.0316 µM, first compound 0.316 µM
[34] = second compound 0.0316 µM, first compound 1 µM
[35] = second compound 0.0316 µM, first compound 3.16 µM
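Note: cells exposed to agents for seven days before viability read.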
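Throughout, for viability, T/C: 100% = DMSO vehicle control wells and lower values mean fewer viable cells.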

SMILES | IC50 (second compound 0.1 µM) [µM] | IC50 (second compound 0.316 µM) [µM] | IC50 (second compound 1 µM) [µM] | IC50 (second compound 3.16 µM) [µM] | viability, T/C [1] [%] | viability, T/C [2] [%] | viability, T/C [3] [%] | viability, T/C [4] [%] | viability, T/C [5] [%] | viability, T/C [7] [%] | viability, T/C [8] [%] | viability, T/C [9] [%] | viability, T/C [10] [%] | viability, T/C [11] [%] | viability, T/C [13] [%] | viability, T/C [14] [%] | viability, T/C [15] [%] | viability, T/C [16] [%] | viability, T/C [17] [%] | viability, T/C [19] [%] | also measured
CCNC(=O)CC1N=C(c2ccc(Cl)cc2)c2cc(OC)ccc2-n2c(C)nnc21 (stereo not given) + COc1cc2nc(C)nc(NC(C)c3cc(N)cc(C(F)(F)F)c3)c2cc1OC1CCOC1 | > 10 | 2.46 | 1.19 | 2.34 | 101 | 67.1 | 61.4 | 55 | 50.4 | 94.6 | 80.2 | 69.5 | 54.5 | 45.7 | 84.7 | 77.7 | 60.3 | 42.7 | 44 | 62.3 | IC50 (second compound 10 µM): < 0.0316 µM; viability, T/C [6]: 49.2%; viability, T/C [12]: 48.2%; viability, T/C [18]: 34.4%; viability, T/C [20]: 69.7%; viability, T/C [21]: 62.2%; viability, T/C [22]: 50.8%; viability, T/C [23]: 46%; viability, T/C [24]: 43.2%; viability, T/C [25]: 31.6%; viability, T/C [26]: 33.9%; viability, T/C [27]: 22.6%; viability, T/C [28]: 12.9%; viability, T/C [29]: 11.1%; viability, T/C [30]: 8.17%
CC(=O)OC12COC1CC(O)C1(C)C(=O)C(O)C3=C(C)C(OC(=O)C(O)C(NC(=O)OC(C)(C)C)c4ccccc4)CC(O)(C(OC(=O)c4ccccc4)C21)C3(C)C (stereo not given) + C=CC(=O)N1CCN(c2nc(OCC3CCCN3C)nc3c2CCN(c2cccc4cccc(C)c24)C3)CC1CC#N | > 3.16 | > 3.16 | > 3.16 | > 3.16 | 96.3 | 76.4 | 86.8 | 91.5 | 95.5 | 83.4 | 73.6 | 72.2 | 99 | 107 | 79.3 | 75.8 | 71.3 | 93.3 | 98.2 | 87.8 | IC50 (second compound 0.0316 µM): > 3.16 µM; viability, T/C (second compound 0.0316 µM, first compound 0.01 µM): 82.1%; viability, T/C [31]: 90.6%; viability, T/C [32]: 103%; viability, T/C [33]: 96%; viability, T/C [34]: 112%; viability, T/C [35]: 94.8%; viability, T/C (second compound 0.1 µM, first compound 0.01 µM): 96.7%; viability, T/C (second compound 0.316 µM, first compound 0.01 µM): 97.8%; viability, T/C (second compound 1 µM, first compound 0.01 µM): 84.4%; viability, T/C (second compound 3.16 µM, first compound 0.01 µM): 103%; viability, T/C [20]: 88.4%; viability, T/C [21]: 87.2%; viability, T/C [22]: 95.7%; viability, T/C [23]: 112%
CC(C)NCC(C(=O)N1CCN(c2ncnc3c2C(C)CC3O)CC1)c1ccc(Cl)cc1 (stereo not given) + COc1cc2nc(C)nc(NC(C)c3cc(N)cc(C(F)(F)F)c3)c2cc1OC1CCOC1 | 1.78 | 1.11 | 1.24 | 0.7 | 75.5 | 79.9 | 73.6 | 56.6 | 35.8 | 89.3 | 78.6 | 62.7 | 57.8 | 32.6 | 67.4 | 76.3 | 70.3 | 55.4 | 26.2 | 80.7 | IC50 (second compound 10 µM): < 0.0316 µM; viability, T/C [6]: 51.2%; viability, T/C [12]: 38.8%; viability, T/C [18]: 27.4%; viability, T/C [20]: 75.6%; viability, T/C [21]: 78.2%; viability, T/C [22]: 37.3%; viability, T/C [23]: 29.9%; viability, T/C [24]: 38.8%; viability, T/C [25]: 35.6%; viability, T/C [26]: 16.1%; viability, T/C [27]: 13.9%; viability, T/C [28]: 7.24%; viability, T/C [29]: 4.57%; viability, T/C [30]: 6.8%
COc1cc(Nc2ncc3c(n2)-c2ccc(Cl)cc2C(c2c(F)cccc2OC)=NC3)ccc1C(=O)O + C=CC(=O)N1CCN(c2nc(OCC3CCCN3C)nc3c2CCN(c2cccc4cccc(C)c24)C3)CC1CC#N | > 10 | > 10 | > 10 | 2.12 | 85.9 | 91.1 | 82.2 | 73.6 | 83.3 | 94.5 | 79 | 70.9 | 67.8 | 83.1 | 79.8 | 81.3 | 94.9 | 96.9 | 67.2 | 45.9 | IC50 (second compound 0.0316 µM): > 10 µM; viability, T/C [31]: 98.9%; viability, T/C [32]: 85.5%; viability, T/C [33]: 89.2%; viability, T/C [34]: 86.2%; viability, T/C [35]: 77.9%; viability, T/C (second compound 0.0316 µM, first compound 10 µM): 77%; viability, T/C [6]: 81%; viability, T/C [12]: 63.9%; viability, T/C [18]: 70.5%; viability, T/C [20]: 64%; viability, T/C [21]: 55.7%; viability, T/C [22]: 54.1%; viability, T/C [23]: 47.4%; viability, T/C [24]: 26.9%
Cn1nccc1Nc1nccc(-c2cc3c(s2)C(C)(C)N(CCN2CCOCC2)C3=O)n1 + CC1OCC2(CCN(c3cnc(Sc4ccnc(N)c4Cl)c(N)n3)CC2)C1N | 2.31 | 0.83 | 0.476 | 0.32 | 86.9 | 82.3 | 76.8 | 70.3 | 37.7 | 79.6 | 76.5 | 65.5 | 47.2 | 33.1 | 78.5 | 73.2 | 56.2 | 38 | 26 | 60.7 | IC50 (second compound 10 µM): < 0.0316 µM; viability, T/C [6]: 47%; viability, T/C [12]: 28.8%; viability, T/C [18]: 22.2%; viability, T/C [20]: 62.3%; viability, T/C [21]: 49.4%; viability, T/C [22]: 30.3%; viability, T/C [23]: 19.7%; viability, T/C [24]: 16.4%; viability, T/C [25]: 48.4%; viability, T/C [26]: 38.2%; viability, T/C [27]: 32.1%; viability, T/C [28]: 23.5%; viability, T/C [29]: 19%; viability, T/C [30]: 16.9%
Cn1nccc1Nc1nccc(-c2cc3c(s2)C(C)(C)N(CCN2CCOCC2)C3=O)n1 | – | – | – | – | – | – | – | – | – | – | – | – | – | – | – | – | – | – | – | – | viability, T/C (compound 0.1 µM): 96.5% [middle of 5 runs]; viability, T/C (compound 0.316 µM): 86.1% [middle of 5 runs]; viability, T/C (compound 1 µM): 79.7% [middle of 5 runs]; viability, T/C (compound 3.16 µM): 54.2% [middle of 5 runs]; viability, T/C (compound 10 µM): 49.9% [middle of 5 runs]
Cn1nccc1Nc1nccc(-c2cc3c(s2)C(C)(C)N(CCN2CCOCC2)C3=O)n1 + CNCc1ccccc1-c1csc(C(C)Nc2nc(C)nc3cc(OC)c(OC)cc23)c1 | 7.27 | > 10 | 1.06 | < 0.0316 | 107 | 91.7 | 80.2 | 81.6 | 49.3 | 115 | 89.9 | 94.2 | 79.3 | 50.1 | 86 | 83.1 | 68 | 52.4 | 27.3 | 3.02 | IC50 (second compound 10 µM): < 0.0316 µM; viability, T/C [6]: 49.4%; viability, T/C [12]: 60.2%; viability, T/C [18]: 6.69%; viability, T/C [20]: 2.17%; viability, T/C [21]: 2.97%; viability, T/C [22]: 3.66%; viability, T/C [23]: 1.05%; viability, T/C [24]: 0.59%; viability, T/C [25]: 2.67%; viability, T/C [26]: 2.95%; viability, T/C [27]: 1.94%; viability, T/C [28]: 1.75%; viability, T/C [29]: 1.4%; viability, T/C [30]: 0.24%
